Assay results as given in PubChem BioAssay AID1963826 (Molecular Pharmacology Branch, DTP, NCI, 2024).

Test system: 926638-142-R-J1-PDC complex spheroid viability
Test: Anticancer human tumor 926638-142-R-J1-PDC patient-derived endometrial carcinoma cell line growth inhibition [POLQ]
Settings: for IC50: curve of first compound; for viability, T/C: stronger effect = lower value
Summary of the method: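 Three-cell-type spheroids modelling solid tumor plus stroma served as the readout system; POL inhibitors were tested individually and in combination, concentration ranges set by clinical Cmax where known.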

[1] = second compound 0.0316 µM, first compound 0.0316 µM
[2] = second compound 0.0316 µM, first compound 0.1 µM
[3] = second compound 0.1 µM, first compound 0.0316 µM
[4] = second compound 0.1 µM, first compound 0.1 µM
[5] = second compound 0.316 µM, first compound 0.0316 µM
[6] = second compound 0.316 µM, first compound 0.1 µM
[7] = second compound 1 µM, first compound 0.0316 µM
[8] = second compound 1 µM, first compound 0.1 µM
[9] = second compound 3.16 µM, first compound 0.0316 µM
[10] = second compound 3.16 µM, first compound 0.1 µM
[11] = second compound 10 µM, first compound 0.0316 µM
[12] = second compound 10 µM, first compound 0.1 µM
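Further: spheroids exposed to drugs for one week before readout.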
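Wherever viability, T/C is given: percent viability relative to DMSO vehicle control wells set as 100%.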

## CC(=O)O[C@H]1C(=O)[C@@]2(C)[C@H]([C@H](OC(=O)c3ccccc3)[C@]3(O)C[C@H](OC(=O)[C@H](O)[C@@H](NC(=O)c4ccccc4)c4ccccc4)C(C)=C1C3(C)C)[C@]1(OC(C)=O)CO[C@@H]1C[C@@H]2O + COC1C(OC(N)=O)C(O)C(Oc2ccc3c(O)c(NC(=O)c4ccc(O)c(CC=C(C)C)c4)c(=O)oc3c2C)OC1(C)C
Second compound 0.0316 µM
  IC50: > 3 µM
Second compound 0.1 µM
  IC50: > 3 µM
Second compound 0.316 µM
  IC50: > 3 µM
Second compound 1 µM
  IC50: > 3 µM
Second compound 3.16 µM
  IC50: > 3 µM
Second compound 10 µM
  IC50: > 3 µM
Second compound 0.0316 µM, first compound 0.00949 µM
  viability, T/C: 94.1%
Second compound 0.0316 µM, first compound 0.03 µM
  viability, T/C: 76.3%
Second compound 0.0316 µM, first compound 0.0949 µM
  viability, T/C: 65.2%
Second compound 0.0316 µM, first compound 0.3 µM
  viability, T/C: 58%
Second compound 0.0316 µM, first compound 0.949 µM
  viability, T/C: 62.3%
Second compound 0.0316 µM, first compound 3 µM
  viability, T/C: 51.4%
Second compound 0.1 µM, first compound 0.00949 µM
  viability, T/C: 89.5%
Second compound 0.1 µM, first compound 0.03 µM
  viability, T/C: 80.9%
Second compound 0.1 µM, first compound 0.0949 µM
  viability, T/C: 62.8%
Second compound 0.1 µM, first compound 0.3 µM
  viability, T/C: 49.9%
Second compound 0.1 µM, first compound 0.949 µM
  viability, T/C: 60.1%
Second compound 0.1 µM, first compound 3 µM
  viability, T/C: 59%
Second compound 0.316 µM, first compound 0.00949 µM
  viability, T/C: 75.5%
Second compound 0.316 µM, first compound 0.03 µM
  viability, T/C: 74.7%
Second compound 0.316 µM, first compound 0.0949 µM
  viability, T/C: 63.6%
Second compound 0.316 µM, first compound 0.3 µM
  viability, T/C: 58.2%
Second compound 0.316 µM, first compound 0.949 µM
  viability, T/C: 48.4%
Second compound 0.316 µM, first compound 3 µM
  viability, T/C: 63.4%
Second compound 1 µM, first compound 0.00949 µM
  viability, T/C: 81.4%
Second compound 1 µM, first compound 0.03 µM
  viability, T/C: 70%
Second compound 1 µM, first compound 0.0949 µM
  viability, T/C: 55.9%
Second compound 1 µM, first compound 0.3 µM
  viability, T/C: 53.1%
Second compound 1 µM, first compound 0.949 µM
  viability, T/C: 62%
Second compound 1 µM, first compound 3 µM
  viability, T/C: 51.8%
Second compound 3.16 µM, first compound 0.00949 µM
  viability, T/C: 86.5%
Second compound 3.16 µM, first compound 0.03 µM
  viability, T/C: 72.2%
Second compound 3.16 µM, first compound 0.0949 µM
  viability, T/C: 67%
Second compound 3.16 µM, first compound 0.3 µM
  viability, T/C: 57.6%
Second compound 3.16 µM, first compound 0.949 µM
  viability, T/C: 67%
Second compound 3.16 µM, first compound 3 µM
  viability, T/C: 54.7%
Second compound 10 µM, first compound 0.00949 µM
  viability, T/C: 94.6%
Second compound 10 µM, first compound 0.03 µM
  viability, T/C: 73.4%
Second compound 10 µM, first compound 0.0949 µM
  viability, T/C: 64.9%
Second compound 10 µM, first compound 0.3 µM
  viability, T/C: 52.1%
Second compound 10 µM, first compound 0.949 µM
  viability, T/C: 51.8%
Second compound 10 µM, first compound 3 µM
  viability, T/C: 60.4%

## CC[C@@]1(O)C(=O)OCc2c1cc1n(c2=O)Cc2cc3c(CN(C)C)c(O)ccc3nc2-1 + Cc1cccc(N(C)C(=O)C2C(O)CCN2c2nc(C)cc(C(F)(F)F)c2C#N)c1
Second compound 0.0316 µM
  IC50: 0.0689 µM
Second compound 0.1 µM
  IC50: 0.0749 µM
Second compound 0.316 µM
  IC50: 0.0738 µM
Second compound 1 µM
  IC50: > 0.1 µM
Second compound 3.16 µM
  IC50: > 0.1 µM
Second compound 10 µM
  IC50: > 0.1 µM
Second compound 0.0316 µM, first compound 0.000316 µM
  viability, T/C: 100%
Second compound 0.0316 µM, first compound 0.001 µM
  viability, T/C: 91.2%
Second compound 0.0316 µM, first compound 0.00316 µM
  viability, T/C: 74.6%
Second compound 0.0316 µM, first compound 0.01 µM
  viability, T/C: 70.4%
[1]
  viability, T/C: 63.1%
[2]
  viability, T/C: 43.4%
Second compound 0.1 µM, first compound 0.000316 µM
  viability, T/C: 86.4%
Second compound 0.1 µM, first compound 0.001 µM
  viability, T/C: 94.6%
Second compound 0.1 µM, first compound 0.00316 µM
  viability, T/C: 87.9%
Second compound 0.1 µM, first compound 0.01 µM
  viability, T/C: 76.8%
[3]
  viability, T/C: 64.7%
[4]
  viability, T/C: 45.2%
Second compound 0.316 µM, first compound 0.000316 µM
  viability, T/C: 94.3%
Second compound 0.316 µM, first compound 0.001 µM
  viability, T/C: 88.9%
Second compound 0.316 µM, first compound 0.00316 µM
  viability, T/C: 70.4%
Second compound 0.316 µM, first compound 0.01 µM
  viability, T/C: 76.3%
[5]
  viability, T/C: 57.4%
[6]
  viability, T/C: 46.3%
Second compound 1 µM, first compound 0.000316 µM
  viability, T/C: 93.7%
Second compound 1 µM, first compound 0.001 µM
  viability, T/C: 74%
Second compound 1 µM, first compound 0.00316 µM
  viability, T/C: 88.8%
Second compound 1 µM, first compound 0.01 µM
  viability, T/C: 68.3%
[7]
  viability, T/C: 68%
[8]
  viability, T/C: 50.4%
Second compound 3.16 µM, first compound 0.000316 µM
  viability, T/C: 78.3%
Second compound 3.16 µM, first compound 0.001 µM
  viability, T/C: 99%
Second compound 3.16 µM, first compound 0.00316 µM
  viability, T/C: 80.7%
Second compound 3.16 µM, first compound 0.01 µM
  viability, T/C: 63%
[9]
  viability, T/C: 61.2%
[10]
  viability, T/C: 47%
Second compound 10 µM, first compound 0.000316 µM
  viability, T/C: 97.9%
Second compound 10 µM, first compound 0.001 µM
  viability, T/C: 71.1%
Second compound 10 µM, first compound 0.00316 µM
  viability, T/C: 75.7%
Second compound 10 µM, first compound 0.01 µM
  viability, T/C: 68%
[11]
  viability, T/C: 62.2%
[12]
  viability, T/C: 47.5%

## C=CC(=O)N1CCN(c2nc(=O)n(-c3c(C)ccnc3C(C)C)c3nc(-c4c(O)cccc4F)c(F)cc23)C(C)C1 (stereo unspecified) + Nc1ccc(C#CCN(C(=O)Cc2ncc(C(F)(F)F)cc2C(F)(F)F)c2ccc(F)cc2)nn1
Second compound 0.0316 µM
  IC50: > 10 µM
Second compound 0.1 µM
  IC50: > 10 µM
Second compound 0.316 µM
  IC50: > 10 µM
Second compound 1 µM
  IC50: > 10 µM
Second compound 3.16 µM
  IC50: > 10 µM
Second compound 10 µM
  IC50: > 10 µM
[1]
  viability, T/C: 93.4%
[2]
  viability, T/C: 106%
Second compound 0.0316 µM, first compound 0.316 µM
  viability, T/C: 98.1%
Second compound 0.0316 µM, first compound 1 µM
  viability, T/C: 92.5%
Second compound 0.0316 µM, first compound 3.16 µM
  viability, T/C: 88.4%
Second compound 0.0316 µM, first compound 10 µM
  viability, T/C: 52.5%
[3]
  viability, T/C: 107%
[4]
  viability, T/C: 103%
Second compound 0.1 µM, first compound 0.316 µM
  viability, T/C: 93.2%
Second compound 0.1 µM, first compound 1 µM
  viability, T/C: 86.6%
Second compound 0.1 µM, first compound 3.16 µM
  viability, T/C: 87.8%
Second compound 0.1 µM, first compound 10 µM
  viability, T/C: 55.8%
[5]
  viability, T/C: 108%
[6]
  viability, T/C: 91%
Second compound 0.316 µM, first compound 0.316 µM
  viability, T/C: 79.8%
Second compound 0.316 µM, first compound 1 µM
  viability, T/C: 90.1%
Second compound 0.316 µM, first compound 3.16 µM
  viability, T/C: 86.4%
Second compound 0.316 µM, first compound 10 µM
  viability, T/C: 53%
[7]
  viability, T/C: 106%
[8]
  viability, T/C: 86.8%
Second compound 1 µM, first compound 0.316 µM
  viability, T/C: 94.6%
Second compound 1 µM, first compound 1 µM
  viability, T/C: 82.3%
Second compound 1 µM, first compound 3.16 µM
  viability, T/C: 85.1%
Second compound 1 µM, first compound 10 µM
  viability, T/C: 53.5%
[9]
  viability, T/C: 93%
[10]
  viability, T/C: 99.7%
Second compound 3.16 µM, first compound 0.316 µM
  viability, T/C: 89.5%
Second compound 3.16 µM, first compound 1 µM
  viability, T/C: 93.6%
Second compound 3.16 µM, first compound 3.16 µM
  viability, T/C: 73.8%
Second compound 3.16 µM, first compound 10 µM
  viability, T/C: 53.8%
[11]
  viability, T/C: 94.4%
[12]
  viability, T/C: 98.5%
Second compound 10 µM, first compound 0.316 µM
  viability, T/C: 78.2%
Second compound 10 µM, first compound 1 µM
  viability, T/C: 78.7%
Second compound 10 µM, first compound 3.16 µM
  viability, T/C: 87%
Second compound 10 µM, first compound 10 µM
  viability, T/C: 60.4%
